Experimental data as given in patent US5939527A, “Tetrapeptides as antitumor agents” (BASF Aktiengesellschaft, priority 1996, dated 1999).
pIC50: −log10 of the molar value.

How the values were obtained:
[1] = test system: HT-29 colon carcinoma cells; assay type: cell-based; conditions: HT-29 cells, 48 hours incubation, MTT; read-out: IC50 (concentration giving a T/C of 50% growth inhibition)
[2] = test system: Human breast tumors (MX-1); assay: In vivo activity, MX-1 human breast tumor xenograft in athymic nude mice; conditions: subcutaneous injection, 10, 20 or 30 mg/kg, three doses per week, days 5-23
Protocol: Compounds of this invention were further tested in pre-clinical assays for in vivo activity which is indicative of clinical utility. Such assays were conducted with nude mice into which tumor tissue, preferably of human origin, had been transplanted (xenografted), as is well known in this field. Test compounds were evaluated for anti-tumor efficacy following administration to the xenograft-bearing mice.
Human breast tumors (MX-1) which had been grown in athymic nude mice were transplanted into new recipient mice, using tumor fragments which were about 50 mg in size. The day of transplantation was designated as day 0. The mice were divided into four groups of 5-10 mice each. An untreated group served as the control. Three groups were treated by subcutaneous injection of compound 1, with each group receiving three doses per week of 30, 20 or 10 mg/kg body weight. Doses were administered on days 5, 7, 9, 12, 14, 16, 19, 21 and 23 post post-implantation.
Tumor diameters and body weights were measured twice weekly. Tumor volumes were calculated using the diameters measured with Vernier calipers, and the formula
(length×width^2)/2=mm^3 of tumor volume
Mean tumor volumes are calculated for each treatment group, and T/C values determined for each group relative to the untreated control tumors.

[3] = test system: four different human lymphoma cell lines; conditions: cited from earlier work
[4] = synthetic Dolastatin 10; cited from earlier work
[5] = test system: P388 lymphocytic leukemia (PS system) cell line; conditions: cited from earlier work

| Compound | pIC50 [1] | inhibition of tumor growth (tumor volume versus post-implantation time) [2] | inhibition of growth of human lymphoma cell lines [3] | solubility in aqueous systems [4] | growth inhibition of P388 cell line [5] |
| --- | --- | --- | --- | --- | --- |
| CO[C@H](CC(=O)N1CCC[C@H]1C(=O)Nc1nccs1)[C@H](C(C)C)N(C)C(=O)[C@@H](NC(=O)[C@H](C(C)C)N(C)C)C(C)C [Compound 1, (3R,4S)-4-[N-(N,N-dimethyl-L-valyl-L-valyl)-N-methylamino]-3-methoxy-5-methyl-hexanoyl prolyl-thiazolyl(2)-amide] | 7.22 | significant dose-dependent inhibition of tumor growth |  |  |  |
| Dolastatin 10 |  |  | effectively inhibit | poor solubility |  |
| Dolastatin 15 |  |  | effectively inhibit |  | inhibits the growth |
